# Source: patent US5663180A, “Substituted cyclopentenes for the treatment of inflammation” (G.D. Searle & Co., priority 1994, dated 1997)
# pIC50: −log10 of the molar value. Read-outs that look alike come from different tables or passages of the source.
# What was measured:
# [1] = system: hyperalgesic foot withdrawal (rat carrageenan); assay: Rat Carrageenan-induced Analgesia Test; type: in vivo, Male Sprague-Dawley rats
# Description: Male Sprague-Dawley rats were treated as previously described for the Carrageenan Foot Pad Edema test. […] After an initial twenty minute period, thermal stimulation was begun on either the injected foot or on the contralateral uninjected foot. A photoelectric cell turned off the lamp and timer when light was interrupted by paw withdrawal. The time until the rat withdraws its foot was then measured. The withdrawal latency in seconds was determined for the control and drug-treated groups, and percent inhibition of the hyperalgesic foot withdrawal determined.
# RAT PAW EDEMA = assay: Rat Carrageenan Foot Pad Edema Test; conditions: po, 3 h, read-out: RAT PAW EDEMA % Inhibition
# HUMAN COX I = target: T1, HUMAN COX I (Homo sapiens, UniProt P23219); assay: COX I activity in vitro (PGE2 formed, ELISA, recombinant enzyme); type: biochemical; conditions: read-out: HUMAN COX I ID50
# T1 construct: A 2.0 kb fragment containing the coding region of either human or murine COX-I or human or murine COX-II; made in house; host or cells: SF9 insect cells (recombinant baculovirus, pVL1393); CHAPS-solubilized
# T1 sequence (P23219 24-599): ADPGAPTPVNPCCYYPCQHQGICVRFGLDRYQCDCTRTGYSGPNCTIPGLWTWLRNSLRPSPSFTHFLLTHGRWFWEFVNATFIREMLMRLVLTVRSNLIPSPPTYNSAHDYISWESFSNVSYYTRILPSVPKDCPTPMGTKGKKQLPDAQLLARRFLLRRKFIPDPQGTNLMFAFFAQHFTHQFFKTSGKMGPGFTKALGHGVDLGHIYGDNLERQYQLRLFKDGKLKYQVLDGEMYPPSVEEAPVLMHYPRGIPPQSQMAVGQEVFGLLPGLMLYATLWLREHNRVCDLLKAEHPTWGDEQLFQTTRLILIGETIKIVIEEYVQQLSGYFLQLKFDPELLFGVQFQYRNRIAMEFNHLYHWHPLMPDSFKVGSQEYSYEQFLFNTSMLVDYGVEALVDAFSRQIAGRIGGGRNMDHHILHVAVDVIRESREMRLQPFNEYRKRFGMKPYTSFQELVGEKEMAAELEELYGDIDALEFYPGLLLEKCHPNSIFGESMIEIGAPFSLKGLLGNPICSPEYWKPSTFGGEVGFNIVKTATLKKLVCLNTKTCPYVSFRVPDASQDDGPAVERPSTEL
# HUMAN COX II = target: T2, HUMAN COX II (Homo sapiens, UniProt P35354); assay: COX II activity in vitro (PGE2 formed, ELISA, recombinant enzyme); type: biochemical; conditions: arachidonic acid 10 μM, 10-20 min pre-incubation, read-out: HUMAN COX II ID50
# T2 construct: A 2.0 kb fragment containing the coding region of either human or murine COX-I or human or murine COX-II; made in house; host or cells: SF9 insect cells (recombinant baculovirus, pVL1393); CHAPS-solubilized
# T2 sequence (P35354 18-604): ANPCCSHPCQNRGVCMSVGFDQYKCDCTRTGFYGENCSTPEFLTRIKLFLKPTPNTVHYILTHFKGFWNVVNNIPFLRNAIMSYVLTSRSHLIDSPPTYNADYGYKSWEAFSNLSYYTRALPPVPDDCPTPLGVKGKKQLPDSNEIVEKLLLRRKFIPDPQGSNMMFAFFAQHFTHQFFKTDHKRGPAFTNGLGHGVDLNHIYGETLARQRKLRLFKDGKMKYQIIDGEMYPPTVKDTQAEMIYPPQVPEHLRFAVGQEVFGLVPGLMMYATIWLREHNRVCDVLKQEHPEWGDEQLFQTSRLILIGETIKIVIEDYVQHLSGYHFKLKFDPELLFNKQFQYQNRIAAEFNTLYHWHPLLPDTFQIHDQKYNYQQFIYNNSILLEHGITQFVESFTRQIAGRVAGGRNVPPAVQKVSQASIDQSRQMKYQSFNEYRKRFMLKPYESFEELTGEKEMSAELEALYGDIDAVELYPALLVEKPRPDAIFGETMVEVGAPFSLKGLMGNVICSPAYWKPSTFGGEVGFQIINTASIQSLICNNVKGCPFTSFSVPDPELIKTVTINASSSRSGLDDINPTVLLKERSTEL
# Description: Evaluation of COX I and COX II activity in vitro
# The COX II inhibition activity of the compounds of this invention illustrated in the Examples was determined by the following methods. a. Preparation of recombinant COX baculoviruses
# Recombinant baculoviruses were isolated by transfecting 4 μg of baculovirus transfer vector DNA into SF9 insect cells (2x10e8) along with 200 ng of linearized baculovirus plasmid DNA by the calcium phosphate method.
# Assay for COX I and COX II activity
# COX II enzyme = conditions: literature report; cited from earlier work
# [2] = po, 3 h, read-out: ANALGESIA % Inhibition
# [3] = recombinant human COX I, arachidonic acid 10 μM, 10-20 min pre-incubation
compound,measurement,setting,value
"COc1ccc(C2=C(c3ccc(S(C)(=O)=O)cc3)CCC2)cc1 [Example 23, 1-[2-(4-Methoxyphenyl)cyclopenten-1-yl]-4-(methylsulfonyl)benzene]",inhibition in vivo at 30 mg/kg,[1]; [2],15%
same,inhibition in vivo at 10 mg/kg,RAT PAW EDEMA,22%
same,pIC50,HUMAN COX I; recombinant cox-i,5.00
"CC1(C)CC(c2ccc(F)cc2)=C(c2ccc(S(N)(=O)=O)cc2)C1 [Example 13, 4-[2-(4-Fluorophenyl)-4,4-dimethylcyclopenten-1-yl]benzenesulfonamide]",inhibition in vivo at 30 mg/kg,"[1]; read-out: ANALGESIA % Inhibition, Assay performed at 30 mg/kg body weight (footnote 2), oral, 3 hours after carrageenan, read-out: […] % Inhibition",14%
same,inhibition in vivo at 30 mg/kg,RAT PAW EDEMA,34%
same,pIC50,HUMAN COX I; [3],6.30
"O=S(=O)(CF)c1ccc(C2=C(c3ccc(F)cc3)CCC2)cc1 [Example 37, 1-[2-(4-Fluorophenyl)cyclopenten-1-yl]-4-(fluoromethylsulfonyl)benzene]",pIC50,HUMAN COX I; [3],< 4.00
same,pIC50,HUMAN COX II,> 7.00
"NS(=O)(=O)c1ccc(C2=C(c3ccc(F)cc3)CCC2)cc1 [Example 20, 4-[2-(4-Fluorophenyl)cyclopenten-1-yl]benzenesulfonamide]",inhibition in vivo at 30 mg/kg,[1]; [2],44%
same,inhibition in vivo at 10 mg/kg,RAT PAW EDEMA,26%
same,pIC50,HUMAN COX I; recombinant cox-i,5.38
"CSc1ccc(C2=C(c3ccc(S(C)(=O)=O)cc3)CCC2)cc1 [Example 11, 1-[2-(4-Methylthiophenyl)cyclopenten-1-yl]-4-(methylsulfonyl)benzene]",inhibition in vivo at 20 mg/kg,[1]; [2],39%
"NS(=O)(=O)c1ccc(C2=C(c3cccc(F)c3F)CCC2)cc1 [Example 26, 4-[2-(2,3-Difluorophenyl)cyclopenten-1-yl]benzenesulfonamide]",pIC50,HUMAN COX I; [3],5.44
"CC1(C)CC(c2ccc(Cl)cc2)=C(c2ccc(S(N)(=O)=O)cc2)C1 [Example 15, 4-[2-(4-Chlorophenyl)-4,4-dimethylcyclopenten-1-yl]benzenesulfonamide]",inhibition in vivo at 30 mg/kg,RAT PAW EDEMA,41%
same,pIC50,HUMAN COX II,> 7.00
"CS(=O)(=O)c1ccc(C2=C(c3ccc(Cl)cc3Cl)CCC2)cc1 [Example 4, 1-[2-(2,4-Dichlorophenyl)cyclopenten-1-yl]-4-(methylsulfonyl)benzene]",inhibition in vivo at 10 mg/kg,RAT PAW EDEMA,25%
"CS(=O)(=O)c1ccc(C2=C(c3ccc(Cl)cc3)CCC2)cc1 [Example 3, 1-[2-(4-Chlorophenyl)cyclopenten-1-yl]-4-(methylsulfonyl)benzene]",inhibition in vivo at 20 mg/kg,[1]; [2],41%
same,inhibition in vivo at 10 mg/kg,RAT PAW EDEMA,33%
"Cc1ccc(C2=C(c3ccc(S(C)(=O)=O)cc3)CCC2)cc1 [Example 5, 1-[2-(4-Methylphenyl)cyclopenten-1-yl]-4-(methylsulfonyl)benzene]",inhibition in vivo at 10 mg/kg,RAT PAW EDEMA,16%
"CS(=O)(=O)c1ccc(C2=C(c3ccc(F)cc3)CCC2)cc1 [Example 1, 1-[2-(4-Fluorophenyl)cyclopenten-1-yl]-4-(methylsulfonyl)benzene]",inhibition in vivo at 20 mg/kg,[1]; [2],66%
same,inhibition in vivo at 10 mg/kg,RAT PAW EDEMA,32%
"CC1(C)CC(c2ccc(F)cc2)=C(c2ccc(S(C)(=O)=O)cc2)C1 [Example 12, 1-[2-(4-Fluorophenyl)-4,4-dimethylcyclopenten-1-yl]-4-(methylsulfonyl)benzene]",inhibition in vivo at 20 mg/kg,RAT PAW EDEMA,45%
same,pIC50,HUMAN COX I; recombinant cox-i,4.74
Cc1ccc(C2=C(c3ccc(S(C)(=O)=O)cc3)CCC2)cn1 [Example 36],inhibition in vivo at 30 mg/kg,RAT PAW EDEMA,33%
same,pIC50,HUMAN COX I; [3],< 4.00
"Cc1cc(F)ccc1C1=C(c2ccc(S(C)(=O)=O)cc2)CCC1 [Example 2, 1-[2-(4-Fluoro-2-methylphenyl)cyclopenten-1-yl]-4-(methylsulfonyl)benzene]",inhibition in vivo at 10 mg/kg,RAT PAW EDEMA,39%
"NS(=O)(=O)c1ccc(C2=C(c3ccc(Cl)c(Cl)c3)CCC2)cc1 [Example 28, 4-[2-(3,4-Dichlorophenyl)cyclopenten-1-yl]benzenesulfonamide]",inhibition in vivo at 30 mg/kg,[1]; [2],26%
same,inhibition in vivo at 10 mg/kg,RAT PAW EDEMA,10%
"COc1ccc(C2=C(c3ccc(S(N)(=O)=O)cc3)CCC2)cc1Cl [Example 32, 4-[2-(3-Chloro-4-methoxyphenyl)cyclopenten-1-yl]benzenesulfonamide]",inhibition in vivo at 30 mg/kg,[1]; [2],17%
same,inhibition in vivo at 10 mg/kg,RAT PAW EDEMA,13%
"NS(=O)(=O)c1ccc(C2=C(c3ccc(Cl)cc3)CCC2)cc1 [Example 21, 4-[2-(4-Chlorophenyl)cyclopenten-1-yl]benzenesulfonamide]",pIC50,HUMAN COX I; recombinant cox-i,5.89
"CC1(C)CC(c2ccc(Cl)cc2)=C(c2ccc(S(C)(=O)=O)cc2)C1 [Example 14, 1-[2-(4-Chlorophenyl)-4,4-dimethylcyclopenten-1-yl]-4-(methylsulfonyl)benzene]",inhibition in vivo at 30 mg/kg,RAT PAW EDEMA,31%
same,pIC50,HUMAN COX I; recombinant cox-i,5.80
"NS(=O)(=O)c1ccc(C2=C(c3ccc(F)c(Cl)c3)CCC2)cc1 [Example 34, 4-[2-(3-Chloro-4-fluorophenyl)cyclopenten-1-yl]benzenesulfonamide]",inhibition in vivo at 30 mg/kg,[1]; [2],46%
same,inhibition in vivo at 10 mg/kg,RAT PAW EDEMA,37%
same,pIC50,HUMAN COX I; [3],5.68
"COc1ccc(C2=C(c3ccc(S(N)(=O)=O)cc3)CCC2)cc1F [Example 30, 4-[2-(3-Fluoro-4-methoxyphenyl)cyclopenten-1-yl]benzenesulfonamide]",inhibition in vivo at 30 mg/kg,RAT PAW EDEMA,47%
same,pIC50,HUMAN COX I; recombinant cox-i,5.09
"CCC1(CC)CC(c2ccc(F)cc2)=C(c2ccc(S(N)(=O)=O)cc2)C1 [Example 19, 4-[2-(4-Fluorophenyl)-4,4-diethylcyclopenten-1-yl]benzenesulfonamide]",pIC50,HUMAN COX I; [3],5.00
same,pIC50,HUMAN COX II,5.41
CS(=O)(=O)Nc1ccc([N+](=O)[O-])cc1OC1CCCCC1 [N-(2-cyclohexyloxy-4-nitrophenyl)methanesulfonamide],inhibition of the COX II enzyme,COX II enzyme,inhibits the COX II enzyme
"CS(=O)(=O)c1ccc(C2=C(c3ccc(C(F)(F)F)cc3)CCC2)cc1 [Example 6, 1-[2-(4-Trifluoromethylphenyl)cyclopenten-1-yl]-4-(methylsulfonyl)benzene]",inhibition in vivo at 20 mg/kg,[1]; [2],29%
same,inhibition in vivo at 10 mg/kg,RAT PAW EDEMA,39%
"CS(=O)(=O)c1ccc(C2=C(c3ccc4c(c3)OCO4)CCC2)cc1 [Example 35, 5-[2-[4-(Methylsulfonyl)phenyl]cyclopenten-1-yl]-1,3-benzodioxole]",inhibition in vivo at 30 mg/kg,RAT PAW EDEMA,6%
"CS(=O)(=O)c1ccc(C2=C(c3cccc(F)c3F)CCC2)cc1 [Example 25, 1-[2-(2,3-Difluorophenyl)cyclopenten-1-yl]-4-(methylsulfonyl)benzene]",pIC50,HUMAN COX I; [3],< 4.00
same,pIC50,HUMAN COX II,> 7.00
COc1ccc2cc(CC(=O)O)ccc2c1 [6-methoxy-2-napthylacetic acid],inhibition of the COX II enzyme,COX II enzyme,selectively inhibit the COX II enzyme
